The experiment relates to ZIKV. As to the kind of experiment: ZIKV reporter virus-based antiviral screening on Huh7 cells. Format: cell-based, Zika virus. As to conditions: Zika virus, Huh-7, 48 h, Huh7 cells infected with recombinant luciferase reporter ZIKV (MOI about 0.1), luciferase signal. From the text: Protocol for ZIKV reporter virus-based antiviral screening on Huh7 cells:
• Human hepatocyte-derived carcinoma cell line (Huh7) 2. Reagents • ViviRen™ Live Cell Substrate (Promega, Cat #E6492) or Nano Glo assay system (Promega: N1130) • White opaque 96-well TC-treated microplates (Corning, Cat #3916) • 96-well Clear V-Bottom TC-treated Microplate (Corning, Cat #3894) • Complete cell culture media: DMEM (Gibco, Cat #10569) supplemented with 10% FBS (HyClone, Cat #SH30071.03IH25-40)+1% MEM Non-Essential Amino Acids Solution 100×(Gibco, Cat #11140050)+1% Penicillin-Streptomycin (10,000 U/mL) (Gibco, Cat #15140122). • Assay media: DMEM media (Gibco, Cat #31053028) supplemented with 2% FBS, 2% GlutaMAX™ Supplement (Gibco Cat #35050061), 1% Sodium Pyruvate solution (Gibco, Cat #11360070), 1% MEM Non-Essential Amino Acids Solution 100× and 1% Penicillin-Streptomycin (10,000 U/mL). • Trypsin-EDTA solution (Gibco, Cat #25200056) 3. Virus • Recombinant ZIKV strain with Renilla luciferase gene (strain FSS-Rlu) or Nano luciferase gene (Strain PRV-Nano, Dakar-Nano) 4. Instruments • BioTek Cytation 5 or other plate-readers for chemiluminescence detection model. • Eppendorf plate centrifuge • Plate shaker • Eppendorf multichannel pipettes Procedures Day 1: Preparation of Cells • Human hepatocyte-derived carcinoma cell line (Huh7) cells were detached from a T-175 flask by using a Trypsin-EDTA solution. The detached cells were suspended in complete culture media in a sterile 50-ml conical tube. • The 50-ml conical tube was centrifuged at 1200×rpm for 3 min at room temperature. • The cells were resuspended in assay media. The cell numbers were counted, and the cells diluted to a density of 3×10^5 cells/ml. • The cells were plated at 50 μl cells per well in White opaque 96-well plates (assay plates). Gently shake the plates to ensure cells to attach to the plate evenly. • The plated cells were incubated in a humidified incubator (37° C. with 5% CO2). Day 2: Infection • 1) Nine serial (2-fold or 3-fold) concentrated compounds were prepared using 90% DMSO solution and DMSO controls in a clear V-bottom 96-well plate (compound plate). • For example:
• 2) The reporter virus stock was diluted to a concentration of 3×10^4 FFU (FFU: focus-forming unit)/ml using the assay media. 200 μl diluted virus per well was aliquoted into a clear V-bottom 96-well plate (mixing plate). • 3) 1 μl above 400×concentrated compound dilutions was added from the compound plate to each well of the mixing plate. The plates were shaken on a plate shaker for 5 min. • 4) 50 μl compound-virus mixture was added into each well of the assay plates (the MOI is about 0.1). The plates were shaken gently by mixing the virus evenly. • An example of the format for assay plate:
• control. • 5) The plates were centrifuged at 1000 rpm for 15 s. • 6) The plates were incubated at 37° C. with 5% CO2 in a humidified incubator for 48 hrs. Day 4: Read Luciferase Signals • 7) The ViviRen™ Live Cell Substrate was diluted in assay media for 3000× folds. 25 μl of diluted substrates was added into each well of the assay plates. • For Nano-Glo assay system, 50 μl diluted substrates (50×fold diluted from the stock in assay buffer) were added. • 8) The plates were incubated at room temperature for 5 min. • 9) Optimally, cell viability is measured using the Promega Cell-titer Glo kit (only used when ZIKV-Rlu was used for infection). • 10) Luciferase signals were read using the Cytation 5 with gain value of 120-150. Data Analysis • a. The luciferase signals from DMSO-treated groups (un-treated controls) were set as 100%. The relative luciferase signals were obtained by normalizing the luciferase signals from each dilution-treated group to that of the controls. • b.
One may read the EC50 as the concentration that produces a half-maximal response. `CC[C@H](C)[C@H](NC(=O)OC)C(=O)N1CCC[C@H]1c1nc(Br)c(-c2cc3c4c(c2)OCc2cc(-c5[nH]c([C@@H]6CCCN6C(=O)[C@@H](NC(=O)OC)[C@@H](C)CC)nc5Br)cc(c2-4)OC3)[nH]1` [Compound 24, dimethyl ((2S,2′S,3S,3′S)-((2S,2′S)-((5,10-dihydrochromeno[5,4,3-cde]chromene-2,7-diyl)bis(4-bromo-1H-imidazole-5,2-diyl))bis(pyrrolidine-2,1-diyl))bis(3-methyl-1-oxopentane-1,2-diyl))dicarbamate]: the 50% effective concentration (EC50) amounted to 2.2 nM.

For the compound `CC(C)[C@H](NC(=O)C1CC1)C(=O)N1CCC[C@H]1c1nc(Cl)c(-c2cc3c4c(c2)OCc2cc(-c5[nH]c([C@@H]6CCCN6C(=O)[C@@H](NC(=O)C6CC6)C(C)C)nc5Cl)cc(c2-4)OC3)[nH]1` [Compound 25, N,N′-((2S,2′S)-((2S,2′S)-((5,10-dihydrochromeno[5,4,3-cde]chromene-2,7-diyl)bis(4-chloro-1H-imidazole-5,2-diyl))bis(pyrrolidine-2,1-diyl))bis(3-methyl-1-oxobutane-1,2-diyl))dicyclopropanecarboxamide], the half-maximal effective concentration (EC50) worked out at 21.9 nM.

With `COC(=O)N[C@H](C(=O)N1CCC[C@H]1c1nc(Cl)c(-c2cc3c4c(c2)OCc2cc(-c5[nH]c([C@@H]6CCCN6C(=O)[C@@H](NC(=O)OC)C(C)(C)C)nc5Cl)cc(c2-4)OC3)[nH]1)C(C)(C)C` [Compound 26, dimethyl ((2S,2′S)-((2S,2′S)-((5,10-dihydrochromeno[5,4,3-cde]chromene-2,7-diyl)bis(4-chloro-1H-imidazole-5,2-diyl))bis(pyrrolidine-2,1-diyl))bis(3,3-dimethyl-1-oxobutane-1,2-diyl))dicarbamate], the EC50 is 1.6 nM.

Consider `COC(=O)N[C@H](C(=O)N1CCC[C@H]1c1nc(Cl)c(-c2cc3c4c(c2)OCc2cc(-c5[nH]c([C@@H]6CCCN6C(=O)[C@@H](NC(=O)OC)C(C)(C)C(F)(F)F)nc5Cl)cc(c2-4)OC3)[nH]1)C(C)(C)C(F)(F)F` [Compound 27, dimethyl ((2S,2′S)-((2S,2′S)-((5,10-dihydrochromeno[5,4,3-cde]chromene-2,7-diyl)bis(4-chloro-1H-imidazole-5,2-diyl))bis(pyrrolidine-2,1-diyl))bis(4,4,4-trifluoro-3,3-dimethyl-1-oxobutane-1,2-diyl))dicarbamate], for which the EC50 was 2.6 nM.

For `CC[C@H](C)[C@H](NC(=O)OC)C(=O)N1[C@@H](C)CC[C@H]1c1nc(Cl)c(-c2cc3c4c(c2)OCc2cc(-c5[nH]c([C@@H]6CC[C@H](C)N6C(=O)[C@@H](NC(=O)OC)[C@@H](C)CC)nc5Cl)cc(c2-4)OC3)[nH]1` [Compound 28, dimethyl ((2S,2′S,3S,3′S)-((2S,2′S,5S,5′S)-((5,10-dihydrochromeno[5,4,3-cde]chromene-2,7-diyl)bis(4-chloro-1H-imidazole-5,2-diyl))bis(2-methylpyrrolidine-5,1-diyl))bis(3-methyl-1-oxopentane-1,2-diyl))dicarbamate], the EC50 came out at 1.6 nM.

With `COC(=O)N[C@H](C(=O)N1[C@H](c2nc(Cl)c(-c3cc4c5c(c3)OCc3cc(-c6[nH]c([C@@H]7C[C@@H]8CCC[C@@H]8N7C(=O)[C@@H](NC(=O)OC)C(C)C)nc6Cl)cc(c3-5)OC4)[nH]2)C[C@@H]2CCC[C@@H]21)C(C)C` [Compound 29, dimethyl ((2S,2′S)-((2S,2′S,3aS,3a′S,6aS,6a′S)-((5,10-dihydrochromeno[5,4,3-cde]chromene-2,7-diyl)bis(4-chloro-1H-imidazole-5,2-diyl))bis(hexahydrocyclopenta[b]pyrrole-2,1(2H)-diyl))bis(3-methyl-1-oxobutane-1,2-diyl))dicarbamate], the concentration for a half-maximal effect (EC50) worked out at 1.8 nM.

Values taken from patent US12497408B2, “Tetracyclic compounds and methods for the treatment of Zika virus infection” (priority 2021, dated 2025).
